Measured values reported in patent EP1550446A1, “Use of 1-(5-isoquinolinesulfonyl) homopiperazine for treating and preventing hypopigmentary disorders” (priority 2003, dated 2005).

Assays:
[1] = test system: human melanoma cell line (Mel-Ho); assay: Melanocyte dendrite outgrowth assay; format: cell-based; details: Mel-Ho cells; for dendrite formation (dendricity): 100 µM, treated for 24 hours, digital photography (Figure 1)
Description: A possibility to test the effect of a compound on melanocyte function as a measure for pigmentation, the melanocyte dendrite outgrowth assay can be performed. Vitiligo melanocytes for example have only stubby dendrites. Increasing dendricity as a prerequisite for the transfer of the melanosomes from melanocytes to the surrounding keratinocytes rescues this defect. For this assay, cells from a human melanoma cell line (Mel-Ho) were obtained from DSMZ (Deutsche Sammlung für Mikroorganismen und Zellkulturen) and were cultured according to the protocol provided by DSMZ. In short, after thawing the melanocytes were cultured in T-75 flasks in melanocyte culture media (provided by the manufacturer) until they reach 70-80% confluency. The melanocytes were then trypsinized, transferred into 5-10 new T-75 flasks, and grown again to same confluency as described above. After this expansion step the melanocytes were immediately used for the Melanocyte Dendrite Outgrowth Assay or were frozen for later use. […] Forskolin is known to cause increased melanocyte dendricity and was used as a positive control. […] Melanocyte dendrite outgrowth was documented by digital photography (Canon G2 Powershot) after 3, 6 and 24 hours.

[2] = test system: normal human epidermal keratinocytes (neonatal keratinocytes, NHEK)
Protocol: To test a possible cytotoxic effect resulting in a morphological change of keratinocytes, normal human epidermal keratinocytes were obtained from Clonetics (neonatal keratinocytes, NHEK) and were cultured according to the manufacturers' protocol. In short, after thawing, the keratinocytes were cultured in T-75 flasks in keratinocyte culture media (provided by the manufacturer) until they reached 70-80% confluency. The keratinocytes were then trypsinized, transferred into new T-75 flasks at a density of 3500 cells/cm^2. After this expansion step the keratinocytes were immediately used for the cytotoxic assay procedure or were frozen for later use. […] Cells treated with media only were used as a negative control. Photos were taken at 3, 6 and 24 hours after stimulation for documentary reasons.

**Q.** How did the “dendrite formation (dendricity)” value [1] turn out when `O=S(=O)(c1cccc2cnccc12)N1CCCNCC1` [1-(5-isoquinolinesulfonyl)homopiperazine] was run?
**A.** The value was “strong dendrite formation”.

**Q.** And the “morphological changes as a measure for cytotoxicity” value [2]?
**A.** The value was “normal morphology”.

**Q.** And the “morphological changes as a measure for cytotoxicity” value (HaCaT keratinocytes)?
**A.** The value was “normal morphology”.

**Q.** What does the source list for `Cl.Cl.O=S(=O)(c1cccc2cnccc12)N1CCCNCC1` [1-(5-isoquinolinesulfonyl)homopiperazine dihydrochloride]?
**A.** dendrite formation (dendricity) [1]: dendricity was strongly stimulated; dendrite formation ([1]; concentrations lower than 100 µM): sufficient to induce dendrite formation; morphological changes as a measure for cytotoxicity [2]: No morphological changes; morphological changes as a measure for cytotoxicity (HaCaT keratinocytes): No morphological changes
